The record followed here is ChEMBL document CHEMBL1151682, “Insecticidal neolignans from Piper decurrens” (J Nat Prod, 1996).

The structures appear in SMILES notation. Active and inactive are the calls of the source. The rule behind the calls is not given here.

The assay relates to Aedes atropalpus. Kind of assay: Toxicity in sOchlerotatus atropalpus second-instar larvae at 10 ppm after 24 hrs. Type of assay: functional, organism-based.
For the compound `c1csc(-c2ccc(-c3cccs3)s2)c1`, the result was Active.
The result for `C/C=C/c1ccc2oc(-c3ccc(O)cc3)c(C)c2c1` reads “Active”; that for `C[C@H]1c2cc(C=O)ccc2O[C@@H]1c1ccc(O)cc1`, “inactive”.
